Measured values reported in patent US9278981B2, “Compounds and compositions for inhibiting the activity of ABL1, ABL2 and BCR-ABL1” (Novartis AG, priority 2012, dated 2016).
Values belong to the compound of their own block, whether it stands above or below them.

Target: ABL1 (64-515) (Homo sapiens (Human), UniProt P00519)
Experiment: Radio ABL1 (64-515) assay (radiometric filter-binding)
Type: biochemical

Chain of ABL1 (64-515) (P00519 64-515): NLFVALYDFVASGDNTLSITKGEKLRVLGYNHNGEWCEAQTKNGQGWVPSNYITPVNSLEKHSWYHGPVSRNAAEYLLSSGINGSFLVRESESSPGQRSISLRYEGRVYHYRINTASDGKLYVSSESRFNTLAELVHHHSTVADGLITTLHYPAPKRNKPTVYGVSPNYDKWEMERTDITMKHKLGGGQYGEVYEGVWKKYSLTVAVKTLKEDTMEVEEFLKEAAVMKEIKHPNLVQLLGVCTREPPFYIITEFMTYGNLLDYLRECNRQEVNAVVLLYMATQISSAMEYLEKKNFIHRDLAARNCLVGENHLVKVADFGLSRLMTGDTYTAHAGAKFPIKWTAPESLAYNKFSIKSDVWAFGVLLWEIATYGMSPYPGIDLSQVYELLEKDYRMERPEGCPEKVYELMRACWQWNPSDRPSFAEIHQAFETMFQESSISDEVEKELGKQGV

Compound: Cc1ncc(-c2cc(C(=O)Nc3ccc(OC(F)(F)F)cc3)ccc2N2CC[C@@H](O)C2)cn1 [Example 3, (R)-4-(3-Hydroxypyrrolidin-1-yl)-3-(2-methylpyrimidin-5-yl)-N-(4-(trifluoromethoxy)phenyl)benzamide]
IC50: < 3 nM

Compound: Cc1ccc(-c2cc(C(=O)Nc3ccc(OC(F)(F)F)cc3)ccc2N2CC[C@@H](O)C2)cn1 [Example 6, (R)-4-(3-Hydroxypyrrolidin-1-yl)-3-(6-methylpyridin-3-yl)-N-(4-(trifluoromethoxy)phenyl)benzamide]
IC50: < 3 nM

Compound: CC1(O)CCN(c2ccc(C(=O)Nc3ccc(OC(F)(F)F)cc3)cc2-c2cncnc2)C1 (centres unmarked) [Example 11, 4-(3-Hydroxy-3-methylpyrrolidin-1-yl)-3-(pyrimidin-5-yl)-N-(4-(trifluoromethoxy)phenyl)benzamide]
IC50: < 3 nM

Compound: CC(=O)NC1CCN(c2ncc(C(=O)Nc3ccc(OC(F)(F)F)cc3)cc2-c2cncnc2)C1 (centres unmarked) [Example 15]
IC50: < 3 nM

Compound: CN1CC2CN(c3ncc(C(=O)Nc4ccc(OC(F)(F)F)cc4)cc3-c3cncnc3)CC2C1 (centres unmarked) [Example 16]
IC50: < 3 nM

Compound: O=C(Nc1ccc(OC(F)(F)F)cc1)c1cnc(N2CCC3(CCNC3=O)C2)c(-c2cncnc2)c1 (centres unmarked) [Example 17]
IC50: < 3 nM

Compound: O=C(Nc1ccc(OC(F)(F)F)cc1)c1cnc(N2Cc3ccncc3C2)c(-c2cncnc2)c1 [Example 18]
IC50: < 3 nM

Compound: O=C(Nc1ccc(OC(F)(F)F)cc1)c1cnc(N2CCCC(CO)C2)c(-c2cncnc2)c1 (centres unmarked) [Example 19]
IC50: < 3 nM

Compound: CC(=O)NC1CCCN(c2ncc(C(=O)Nc3ccc(OC(F)(F)F)cc3)cc2-c2cncnc2)C1 (centres unmarked) [Example 20]
IC50: < 3 nM

Compound: NC(=O)C1CCN(c2ncc(C(=O)Nc3ccc(OC(F)(F)F)cc3)cc2-c2cncnc2)CC1 [Example 21]
IC50: 13 nM

Compound: O=C(Nc1ccc(OC(F)(F)F)cc1)c1cnc(N2CCC(O)CC2)c(-c2cncnc2)c1 [Example 22]
IC50: < 3 nM

Compound: N#C[C@@H]1CCCN(c2ncc(C(=O)Nc3ccc(OC(F)(F)F)cc3)cc2-c2cncnc2)C1 [Example 23]
IC50: < 3 nM

More lines, now with the values ahead:

IC50: < 3 nM
Compound: N#C[C@H]1CCCN(c2ncc(C(=O)Nc3ccc(OC(F)(F)F)cc3)cc2-c2cncnc2)C1 [Example 24]

IC50: < 3 nM
Compound: CN(c1ncc(C(=O)Nc2ccc(OC(F)(F)F)cc2)cc1-c1cncnc1)C1CCOCC1 [Example 27]

IC50: < 3 nM
Compound: COc1ncc(-c2cc(C(=O)Nc3ccc(OC(F)(F)F)cc3)cnc2N2CCC(O)C2)cn1 (centres unmarked) [Example 28, 6-(3-Hydroxypyrrolidin-1-yl)-5-(2-methoxypyrimidin-5-yl)-N-(4-(trifluoromethoxy)phenyl)nicotinamide]

IC50: < 3 nM
Compound: O=C(Nc1ccc(OC(F)(F)F)cc1)c1cnc(N2CCC(O)C2)c(-c2cccnc2)c1 (centres unmarked) [Example 29, 2-(3-Hydroxypyrrolidin-1-yl)-N-(4-(trifluoromethoxy)phenyl)-[3,3′-bipyridine]-5-carboxamide]

IC50: < 3 nM
Compound: Cc1ccc(-c2cc(C(=O)Nc3ccc(OC(F)(F)F)cc3)cnc2N2CCC(O)C2)cn1 (centres unmarked) [Example 30, 2-(3-Hydroxypyrrolidin-1-yl)-6′-methyl-N-(4-(trifluoromethoxy)phenyl)-[3,3′-bipyridine]-5-carboxamide]

IC50: 7 nM
Compound: O=C(Nc1ccc(OC(F)(F)F)cc1)c1cnc(N2CCC(O)C2)c(-c2ccncc2)c1 (centres unmarked) [Example 31, 2-(3-Hydroxypyrrolidin-1-yl)-N-(4-(trifluoromethoxy)phenyl)-[3,4′-bipyridine]-5-carboxamide]

IC50: < 3 nM
Compound: O=C(Nc1ccc(OC(F)(F)F)cc1)c1cnc(N2CCC(O)C2)c(-c2ccc(C(F)(F)F)nc2)c1 (centres unmarked) [Example 32, 2-(3-Hydroxypyrrolidin-1-yl)-N-(4-(trifluoromethoxy)phenyl)-6′-(trifluoromethyl)-[3,3′-bipyridine]-5-carboxamide]

IC50: < 3 nM
Compound: Cc1ncc(-c2cc(C(=O)Nc3ccc(OC(F)(F)F)cc3)cnc2N2CC[C@@H](O)C2)cn1 [Example 36, (R)-6-(3-Hydroxypyrrolidin-1-yl)-5-(2-methylpyrimidin-5-yl)-N-(4-(trifluoromethoxy)phenyl)nicotinamide]
